Five compounds from US20220347182A1, “METHODS AND COMPOSITIONS FOR THE TREATMENT OF OSTEOARTHRITIS” (The Board of Trustees of the Leland Stanford Junior …, priority 2019, published 2022) can be followed below.

Molecules are shown by their SMILES. Entries after “also recorded” stand apart in the source; their conditions may differ.

Assay [1] relates to OA chondrocytes. The assay can be described thus: Human 62-plex Luminex array of secretome after drug treatment. Type of assay: cell-based. As to conditions: for CCL2 secretion / CCL7 secretion: 48 hours vs DMSO/control, 50 μM JNK Inhibitor II, 25 μM BMS-345541, 50 μM SB 431542, 0.5 mM IBMX, combination compared to JNK inhibitor alone. The protocol:
Next, experiments were conducted to explore the functional effects of inhibiting these newly identified Inf-A cells in OA cartilage by capitalizing on their distinct signalling through JNK. Chondrocytes derived from 6 patients were cultured for 48-hours in the presence of JNK II inhibitor and the secretome was analyzed via 62 antibody human Luminex panels. Across all six patients, a variety of cytokines were altered, many trending toward significance. […] CCL2 and 7 are well-established chemoattractants for monocytes and are known to be altered during OA progression (see for example Ref 28). Genetic deletions of CCL2 and its receptor CCR2 prevent the development of surgical OA, further underscoring the importance of CCL2 as a key modulator in pathology (see for example Ref. 28). […] As a complementary approach, SMAD1/5, the other exclusive signaling pathway of the Inf-A cells was inhibited using an ALK inhibitor. ALK receptors are the most common upstream target of SMAD1/5 signaling in OA (See for example Ref. 31).
(§1) OA cells were seeded at high density in 12-well plates and treated with control (DMSO) or drug next day for 48 hours. Drug doses were determined based on prior literature and validation-: 0.5 mM 3-Isobutyl-1-methylxanthine (IBMX, Sigma 15879) (See for example Ref. 33), 50 μM JNK Inhibitor II (Calbiochem 420119), 25 μM NFK-B inhibitor BMS-345541 (Sigma B9935) (See for example Ref 30, 43), 50 μM Alk inhibitor, SB 431542 hydrate (Sigma S4317 (See for example Ref. 44, 45) and 25 uM Kartogenin (Sigma SML0370) (See for example Ref. 24-26) were used with appropriate dilution in DMSO.
Cell culture supernatants were collected and spun down at 10,000×g for 10 min at 4° C. to remove any cells or cell debris and then snap frozen in liquid nitrogen, before performing the assay. This assay was performed in the Human Immune Monitoring Center at Stanford University. Human 62-plex kits were purchased from eBiosciences/Affymetrix and used according to the manufacturer's recommendations with modifications as described below. Briefly, beads were added to a 96-well plate and washed in a Biotek ELx405 washer. Undiluted samples were added to the plate containing the mixed antibody-linked beads and incubated at room temperature for 1 hour followed by overnight incubation at 4° C. with shaking. Cold and room temperature incubation steps were performed on an orbital shaker at 500-600 rpm. Following the overnight incubation plates were washed in a Biotek ELx405 washer and then biotinylated detection antibody added for 75 minutes at room temperature with shaking. Plate was washed as above and streptavidin-PE was added. After incubation for 30 minutes at room temperature wash was performed as above and reading buffer was added to the wells. Each sample was measured in duplicate. Plates were read using a Luminex 200 instrument with a lower bound of 50 beads per sample per cytokine. Custom assay Control beads by Radix Biosolutions were added to all wells.

Assay [2] relates to OA chondrocytes. The assay is described as follows: RT-qPCR gene expression after drug treatment. The format is cell-based, human. As to conditions: 48 hours; for MMP13 expression: OA patients n=3. As to the method: Cells for RNA extraction were collected in RNA lysis buffer (Zymo Research) and processed according to the manufacturer's specifications for the Quick-RNA MicroPrep Kit (Zymo Research, R1051), including the optional DNAse1 digestion. RNA quality and quantity was measured using the Nanodrop 1000 Spectrophotometer. All samples had A260/280 scores between 1.6-1.8.
[…] of RNA from each sample was reversed transcribed into cDNA using the High Capacity cDNA Reverse Transcription Kit (Applied Biosystems, 4368813). Quantitative PCR was performed using TaqMan gene-specific expression assays, FAM-labeled, for metalloproteinase 3, 9, a 13 (Hs00233962_m1, Hs00957562_m1, Hs00233992_m1), with a universal mastermix (Applied Biosystems, 4369016). Gene expression levels were normalized with FAM-labeled Actin-beta (Hs01060665_g1).
For Tfam, CD24 and PGC1a, we utilized the SybrGreen mastermix (Applied Biosystems, A25742) according to manufacturer's specifications. Primer sequences: Tfam_F: 5′-GCTCAGAACCCAGATGCA AAA-3′, Tfam_R 5′-AGGAAGTTCCCTCCAACGC-3′, PGCla_F: 5′-[…]-3′, PGC1a_R: 5′-[…]-3′, CD24_F: 5′-TACCCACGCAGATTTATT-3′, CD24_R: 5′-AGA GTGAGACCACGAAGA-3′, Actin_F 5′-CACCAACTGGGACGACAT-3′, Actin_R: 5′-ACAGCCTGGATAGCAACG-3′. qPCR reactions included a 2-minute incubation at 50° C. to inactivate previous amplicons with uracil-DNA glycosylase, followed by a 10-minute incubation at 95° C. to activate the Taq polymerase. The amplification cycle, consisting of 15 seconds at 95° C., and 1 minute at 60° C., was repeated 40 times. The relative expression levels were determined using the ΔCt method (CT gene of interest−CT internal control−Actin) and relative gene expression is calculated using 2−ΔCt method and plotted.
as §1
(In general: Quantitative PCR measures a nucleic acid by following its amplification.)

For assay [3], the system named is post-traumatic osteoarthritis (PTOA). The assay can be described thus: Mouse model of post-traumatic osteoarthritis (tibial loading), OARSI histological scoring. The format is in vivo, wildtype C57BL mice. As to conditions: 50 uM, 8 weeks post-injury vs control; for OA progression: intra-articular, 2 injections every week starting 1 week after tibial loading. The protocol: Using a mouse model of post-traumatic osteoarthritis (PTOA) wherein mechanical loading can lead to onset and progression of OA (Christiansen et al. 2012), Applicant tested if early intervention with small molecule modulators of the Inf A populations can modulate the onset or progression of OA in vivo. For these experiments, wildtype C57BL mice were injected with (a) control or (b) Inf-A inhibitor (JNK II inhibitor) OA initiation to test whether these putative modulations can be therapeutic in OA. The injections were given starting 1 week after tibial loading and at a frequency of 2 injections every week to ensure their efficacy. For histological assessment, the OARSI scoring criteria was utilized to grade the OA severity with the score of 0-6 grades ranging from intact cartilage to erosion and deformation of cartilage/bone. For the quantification of OA development in each control or injured joint, 6 sagittal sections (4 μm thickness) spaced 50 μm are typically cut and stained in order to cover the whole joint compartment. A maximum score for the overall section (both tibial plateau and femoral condyle) is obtained after assigning the most severe damage score for each section and averaging the scores; a summit score (sum of the calculated scores) is calculated as a measure of the prevalent damage over the whole joint.

In assay [4] the test system is OA chondrocytes. The assay can be described thus: cyTOF profiling of CPC cluster abundance after kartogenin treatment. Type of assay: cell-based, human. The following applies: 25 uM kartogenin vs DMSO, 48 hours.
From the text: Experiments were undertaken to understand how the application of a pro-regenerative drug would affect this CPC landscape, specifically the pro-inflammatory CPCs four in Group C. Kartogenin (KGN) was originally identified in a screen to expand mesenchymal stem cells and has since been shown in multiple studies to be a pro-chondrogenic modulator of OA progression in animal models (See for example Ref. […]). One patient from Group C (OA15) and one patient from Group A (OA5) were utilized. One patient from Group A (OA5) and one patient from Group C (OA15) were treated with kartogenin or control (DMSO) for 48 hours, fixed, stained and profiled by cyTOF as previously described. […] The treatment additionally expanded low-inflammation clusters 7 and 11 in the Group A patient, where they already appeared overrepresented, while these clusters were not expanded in the Group C patient. Furthermore, kartogenin reduced pro-inflammtory clusters 9, 12 in both the patients, though to a greater degree in the Group C patient enriched in those subtypes (FIG. 3G). Overall, kartogenin appears to expand normal-like and low inflammation CPC clusters (2, 10, 7 and 11) while reducing the high inflammation CPC III clusters (12 and 16).
as §1
OA cells were cultured to confluence in 10 cm dishes. On the collection day, cells were stained with 25 μM Idu for 15 min at 37° C. in the cell incubator, then with 0.5 μM cisplatin for 5 min at RT. Cells were then lifted with 0.25% Trypsin-EDTA (Gibco) for 15 min at 37° C. Trypsin was quenched using media containing 10% FBS and cell were washed 3 times with PBS to remove any trace amounts of trypsin. Cells were fixed after straining through a […] strainer in 1.6% PFA for 10 min at RT. Cells were washed 4 times with cells staining media, counted and frozen in 1 million cell aliquots in a small amount of cell staining media at −80° C. To stain, cells were thawed on ice and barcoded using the Cell-ID 20-plex Pd Barcoding Kit (Fluidigm) according to the manufacturer's specifications. After barcoding, cells were labeled as previously described (See for example Ref 13). Briefly, all barcoded samples were combined into one FACs tube, and washed 3× with cell staining media and stained with the cell surface antibodies for 30 minutes at RT according to the concentrations in Table 2. Cells were then was 2× with cell staining media and permeabilized with 1 mL of cold methanol added dropwise with continuous gentle vortexing. Cells were incubated for 10 min on ice, with gentle vortexing every 2-3 minutes to avoid cell clumping, then washed in cell staining media and stained with the intracellular antibodies for 30 minutes at RT. After 2× washed with cell staining media, cells were resuspended in 1.6% PFA with Cell-ID Intercalator-Ir (Fluidigm) used at 1:2000. Cells were measured using the cyTOF 2 (Fluidigm) and injected using the supersampler. […]

Where [5] appears, read: 48 hours vs DMSO, 50 μM SB 431542, combination compared to JNK inhibition alone.

Consider `NC(=O)c1ccc(-c2nc(-c3ccc4c(c3)OCO4)c(-c3ccccn3)[nH]2)cc1` [ALK inhibitor, SB 431542 hydrate], for which, in assay [1], the CCL2 secretion result is recorded as “decrease” and the CCL7 secretion entry was “decrease”. Further, in assay [1] (setting [5]), the CXCL1 secretion result is reported as “decrease” and the CXCL5 secretion result is on record as “decrease”.

As for `Cc1ccc2nc(NCCN)c3ncc(C)n3c2c1` [BMS-345541], in assay [1], the CCL2 secretion entry is “did not affect” and the CCL7 secretion result is on record as “did not affect”.

For the compound `CC(C)Cn1c(=O)n(C)c(=O)c2[nH]cnc21` [IBMX, 3-Isobutyl-1-methylxanthine], the “upregulation of CD24 expression” value in assay [2] (0.5 mM IBMX) is reported as 2-4 fold. Further, the MMP13 expression entry in assay [2] is given as “no consistent effect; also recorded: No significant differences”. Besides, in assay [2] (IBMX), the Pgc1a gene expression entry is “increased” and the Tfam gene expression result is reported as “increased”. Further, in assay [1], the CCL2 secretion entry is reported as “modest downregulation” and the CCL7 secretion result is recorded as “modest downregulation”.

With `O=C1c2ccccc2-c2n[nH]c3cccc1c23` [JNK II inhibitor], in assay [2], the MMP gene expression result is on record as “remained unaffected” and the MMP13 expression result is given as “No significant differences”. In assay [1], the CCL2 secretion result is recorded as “significant decrease” and the CCL7 secretion result is listed as “significant decrease”. Also, in assay [1] (listed as INK inhibitor), the CCL2 secretion entry is “overall reduction” and the CCL7 secretion result is “overall reduction”. In assay [3], the “max score (OARSI)” value is recorded as “reduced”, the “summit score (OARSI)” value is “reduced” and the OA progression entry is reported as “slowed”. The OA progression entry in assay [3] (listed as JNKII inhibitor) is reported as “slows down progression”.

As for `O=C(O)c1ccccc1C(=O)Nc1ccc(-c2ccccc2)cc1` [Kartogenin], the “abundance of low-inflammation clusters 7 and 11” value is given as “expanded” in assay [4] (Group A patient (OA5)) and “not expanded” in assay [4] (Group C patient (OA15)). The “abundance of pro-inflammatory clusters 9, 12” value in assay [4] (both patients) is “reduced”. In assay [4] (both patients (OA5 Group A, OA15 Group C)), the “abundance of cluster 2 (CPC I) and cluster 10 (CPC II)” value is “selectively expanded”. Further, the “abundance of high inflammation CPC III clusters (12 and 16)” value in assay [4] (overall summary) is “reducing”.
